Assay results reported in paper PMC8755628 (Pharmacological research, 2021).

Biological target: MET (Homo sapiens, UniProt P08581)
Test: MET kinase assay
Type: biochemical

Chain of MET (P08581 25-307): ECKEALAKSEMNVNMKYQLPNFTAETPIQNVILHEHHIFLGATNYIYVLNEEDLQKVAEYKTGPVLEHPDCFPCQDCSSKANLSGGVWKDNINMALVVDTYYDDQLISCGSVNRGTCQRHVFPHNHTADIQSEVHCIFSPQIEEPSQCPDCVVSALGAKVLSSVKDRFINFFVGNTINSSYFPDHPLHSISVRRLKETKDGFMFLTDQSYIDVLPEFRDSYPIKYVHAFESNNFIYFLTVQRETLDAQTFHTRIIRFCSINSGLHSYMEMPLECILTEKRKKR
Chain of MET (P08581 308-1390): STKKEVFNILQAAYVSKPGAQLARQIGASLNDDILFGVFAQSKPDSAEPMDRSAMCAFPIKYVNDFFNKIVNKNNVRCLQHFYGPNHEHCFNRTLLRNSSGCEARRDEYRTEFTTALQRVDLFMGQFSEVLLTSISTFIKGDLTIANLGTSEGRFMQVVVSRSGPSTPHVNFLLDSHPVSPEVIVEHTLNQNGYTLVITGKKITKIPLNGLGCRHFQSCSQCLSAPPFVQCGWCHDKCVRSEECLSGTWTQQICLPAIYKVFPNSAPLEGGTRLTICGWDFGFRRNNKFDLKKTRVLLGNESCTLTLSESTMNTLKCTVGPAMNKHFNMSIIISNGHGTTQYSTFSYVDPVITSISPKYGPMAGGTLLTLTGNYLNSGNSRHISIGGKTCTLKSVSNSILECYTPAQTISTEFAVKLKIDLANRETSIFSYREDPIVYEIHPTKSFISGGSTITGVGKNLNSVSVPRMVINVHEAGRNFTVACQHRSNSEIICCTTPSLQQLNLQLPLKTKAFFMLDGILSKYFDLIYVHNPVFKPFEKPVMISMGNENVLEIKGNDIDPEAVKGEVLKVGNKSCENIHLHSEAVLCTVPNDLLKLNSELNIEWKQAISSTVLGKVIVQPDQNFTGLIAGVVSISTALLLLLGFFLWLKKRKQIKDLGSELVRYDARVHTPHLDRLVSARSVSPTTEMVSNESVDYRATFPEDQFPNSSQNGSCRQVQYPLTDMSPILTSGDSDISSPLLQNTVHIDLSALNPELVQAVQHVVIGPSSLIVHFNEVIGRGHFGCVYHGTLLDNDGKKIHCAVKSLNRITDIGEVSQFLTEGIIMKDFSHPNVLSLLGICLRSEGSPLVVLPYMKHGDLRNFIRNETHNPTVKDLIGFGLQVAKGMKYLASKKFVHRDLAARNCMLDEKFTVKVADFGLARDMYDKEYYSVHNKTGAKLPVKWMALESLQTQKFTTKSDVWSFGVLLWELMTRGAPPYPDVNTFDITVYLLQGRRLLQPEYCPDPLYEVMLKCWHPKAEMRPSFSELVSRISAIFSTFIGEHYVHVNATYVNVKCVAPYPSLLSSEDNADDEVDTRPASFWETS

Work on `COc1ccc2cc3[n+](cc2c1OC)CCc1cc2c(cc1-3)OCO2` [BBR, Berberine] yielded an IC50 of 19.6 µM.
